Experimental data reported in the NIST ThermoML archive (doi:10.1021/je0502501).
± gives the expanded uncertainty stated by the source.

Test: wn = mass fraction of the nth substance listed
Details: 313 K, 101 kPa, Liquid, Vibrating tube method

## CCCCn1cc[n+](C)c1.F[P-](F)(F)(F)(F)F [1-butyl-3-methylimidazolium hexafluorophosphate] + O
w2 = 6.7e-05
  mass density: 1358.7 ± 3.6 kg/m3
w2 = 0.0015
  mass density: 1357.6 ± 3.6 kg/m3
w2 = 0.0089
  mass density: 1347.3 ± 3.6 kg/m3
w2 = 0.016
  mass density: 1335.5 ± 3.5 kg/m3
